Reference: US20240016822A1, “USE OF NK1 ANTAGONIST PRODRUG COMPOUND IN COMBINATION WITH 5-HT3 RECEPTOR ANTAGONIST” (Shanghai Shengdi Pharmaceutical Co., Ltd., priority 2020, published 2024)
Like-named read-outs stand apart in the source and are kept apart here.

Columns and labels:
[1] = Water solubility at different pH values; type: physicochemical
Description: • 1.1 Preparation of reagent • Reagent: NaH2PO4·2H2O • 1.2 Preparation method
The preparation according to 100 mL specification is as follows: • pH=3.0: phosphate buffer: 100 mL of 2 mmol/L NaH2PO4, adjusted to pH 3.0 with 0.1 M H3PO4. • pH=4.0: phosphate buffer: 100 mL of 2 mmol/L NaH2PO4, […] 100 mL of 2 mmol/L Na2HPO4, adjusted to pH 9.0 with 0.1 M NaOH. • 1.3 Test method
A proper amount of a test compound was weighed, and the solution was added in small batches. The mixture was stirred until the test compound was dissolved. The content of the compound in the solution was determined. The data are shown in Table 1. • 2.1 Stability test of compound
1 mg of the sample was weighed and added to a vial. The vial was placed in a vacuum bag, which was vacuumized and placed in a container filled with allochroic silica gel. The container was sealed. Two parts were prepared in parallel. Adequate parts were prepared according to sampling time points, and the two parts for each sampling time point were placed at 4° C. and room temperature, respectively. The solubility of the compound of formula (I) was determined at different pH values.

red blood cells (RBCs) = experiment: Hemolytic effect on rabbit red blood cell suspension; type: cell-based; conditions: 2% rabbit RBC suspension; test sample in PBS (pH 7.4 or pH 5), 0.4-2 mg/mL; concentration up to 2 mg/mL
Description: 10 mL of red blood cells (RBCs) were randomly collected from the jugular vein or central auricular artery of a rabbit (EDTA whole blood), placed in a conical flask with glass beads, and shaken for 10 min to remove fibrinogen, resulting in defibrinated blood. 10 volumes of sodium chloride injection were added. The mixture was shaken uniformly and centrifuged at 1500 rpm for 10 min, and the supernatant was removed. […] The obtained red blood cells were prepared into 2% (v/v) suspension with sodium chloride injection for later use.
A test sample (the compound of formula (I)) was dissolved in PBS (pH 7.4 or pH 5), and the solution was filtered and prepared to the concentrations of 0.4 mg/mL, 0.8 mg/mL, 1.2 mg/mL, 1.6 mg/mL, and 2 mg/mL for later use.
A certain amount of the test sample solution was added to the above […] for testing in the supernatant.
The hemolytic effect of the compound provided by the present disclosure was determined by this method.
Rolapitant emulsion (formula: 4.4% polyethylene glycol 15-hydroxystearate, 1.1% medium chain triglyceride, and 0.66% soybean oil) was prepared by reference to the method described in CN102573475, and prepared with PBS to concentrations of 0.18 mg/mL, 0.09 mg/mL, 0.045 mg/mL, 0.023 mg/mL, 0.011 mg/mL, […] for later use.
The hemolytic effect was determined by the method described in Test Example 2.

[2] = Pharmacokinetic test in cynomolgus monkeys; type: in vivo
Description: With cynomolgus monkeys as test animals, the plasma concentrations of the compound of formula (I) at different time points after administration by injection were determined by LC/MS/MS. The pharmacokinetic performance of the compound was studied in cynomolgus monkeys and its pharmacokinetic characteristics were evaluated.
A certain amount of the test compound was weighed and prepared into a solution at pH 4.0 with 20 mmol/L sodium dihydrogen phosphate for later use. • 1.1 Administration Intravenous drip, injection time: about 30 min, administration dose: 3.54 mg/kg, administration concentration: […], and administration volume: 5 mL/kg. • 1.2 Operation
Blood was collected from femoral vein before administration and 5 min, 0.25 h, 0.5 h, 1 h, 2 h, 4 h, 6 h, 8 h, 10 h and 24 h after administration, about 0.6 mL for each sample. The blood samples were anticoagulated with sodium heparin and placed on ice immediately after collection. The blood samples were placed in marked centrifuge tubes after collection, and plasma was isolated by centrifugation (centrifugation conditions: 2200 g of centrifugal force, 10 min, 2-8° C.).
The contents of the compound of formula (I) and rolapitant in the plasma samples were determined by LC/MS/MS. • 1.3 Pharmacokinetic parameters

## C[C@@H](OC[C@@]1(c2ccccc2)CC[C@]2(CCC(=O)N2)CN1C(=O)OCOP(=O)(O)O)c1cc(C(F)(F)F)cc(C(F)(F)F)c1 [compound of formula (I)]
[1]; pH 7.4, thermodynamic from solid, pH 7.4, read-out: Saturated solubility
  solubility: 19.8 mg/mL
[1]; pH 7.4, thermodynamic from solid, pH 7.4, read-out: Solubility
  solubility: 26 mg/mL
[1]; phosphate buffer, pH 9, aqueous buffer, thermodynamic from solid, pH 9.0, read-out: Saturated solubility
  solubility: 21.4 mg/mL
[1]; phosphate buffer, pH 9, aqueous buffer, thermodynamic from solid, pH 9.0, read-out: Solubility
  solubility: 28 mg/mL
Red blood cells (RBCs)
  Hemolytic effect: no hemolytic effect
[2]; cynomolgus monkey, analyte compound of formula (I) in plasma, intravenous drip about 30 min, 3.54 mg/kg compound of formula (I)
  half-life: 28.2 min
[2]; cynomolgus monkey, analyte compound of formula (I) in plasma, intravenous drip about 30 min, 3.54 mg/kg compound of formula (I), read-out: AUC0-24 h
  AUC(0-t): 1430 ng·h/mL
[2]; cynomolgus monkey, analyte compound of formula (I) in plasma, intravenous drip about 30 min, 3.54 mg/kg compound of formula (I), read-out: MRT 0-∞
  MRT inf: 15.6 min
[2]; cynomolgus monkeys, intravenous drip 3.54 mg/kg
  Conversion of prodrug into active metabolite rolapitant: quickly converted into the active metabolite rolapitant
